What was measured:
[1] = biological target: T1, soluble guanylate cyclase (sGC) (Bos taurus, UniProt P16068); experiment: Activation of soluble guanylate cyclase (cGMP enzyme immunoassay); type: biochemical; conditions: sGC isolated from bovine lung, stimulation of basal enzyme activity vs solvent control
T1 construct: The sGC employed had been isolated from bovine lung; from tissue; host or cells: bovine lung
T1 sequence (P16068 1-619): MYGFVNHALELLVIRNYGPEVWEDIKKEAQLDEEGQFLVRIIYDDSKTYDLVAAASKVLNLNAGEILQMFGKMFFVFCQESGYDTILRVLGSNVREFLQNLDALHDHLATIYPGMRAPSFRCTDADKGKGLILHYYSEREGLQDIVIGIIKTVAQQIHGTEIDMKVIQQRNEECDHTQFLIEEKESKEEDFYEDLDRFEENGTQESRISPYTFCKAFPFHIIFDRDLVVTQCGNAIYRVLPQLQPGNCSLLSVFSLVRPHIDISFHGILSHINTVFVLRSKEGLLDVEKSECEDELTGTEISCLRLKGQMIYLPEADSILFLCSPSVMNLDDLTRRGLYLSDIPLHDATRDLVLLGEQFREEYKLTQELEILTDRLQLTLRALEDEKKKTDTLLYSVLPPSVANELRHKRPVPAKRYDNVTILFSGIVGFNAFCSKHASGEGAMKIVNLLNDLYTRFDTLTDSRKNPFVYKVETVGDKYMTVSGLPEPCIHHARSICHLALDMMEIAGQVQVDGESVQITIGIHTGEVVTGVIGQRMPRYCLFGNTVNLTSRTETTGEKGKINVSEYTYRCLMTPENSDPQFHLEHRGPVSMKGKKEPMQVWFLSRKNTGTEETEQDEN
T1 sequence (P19687 1-691 partner): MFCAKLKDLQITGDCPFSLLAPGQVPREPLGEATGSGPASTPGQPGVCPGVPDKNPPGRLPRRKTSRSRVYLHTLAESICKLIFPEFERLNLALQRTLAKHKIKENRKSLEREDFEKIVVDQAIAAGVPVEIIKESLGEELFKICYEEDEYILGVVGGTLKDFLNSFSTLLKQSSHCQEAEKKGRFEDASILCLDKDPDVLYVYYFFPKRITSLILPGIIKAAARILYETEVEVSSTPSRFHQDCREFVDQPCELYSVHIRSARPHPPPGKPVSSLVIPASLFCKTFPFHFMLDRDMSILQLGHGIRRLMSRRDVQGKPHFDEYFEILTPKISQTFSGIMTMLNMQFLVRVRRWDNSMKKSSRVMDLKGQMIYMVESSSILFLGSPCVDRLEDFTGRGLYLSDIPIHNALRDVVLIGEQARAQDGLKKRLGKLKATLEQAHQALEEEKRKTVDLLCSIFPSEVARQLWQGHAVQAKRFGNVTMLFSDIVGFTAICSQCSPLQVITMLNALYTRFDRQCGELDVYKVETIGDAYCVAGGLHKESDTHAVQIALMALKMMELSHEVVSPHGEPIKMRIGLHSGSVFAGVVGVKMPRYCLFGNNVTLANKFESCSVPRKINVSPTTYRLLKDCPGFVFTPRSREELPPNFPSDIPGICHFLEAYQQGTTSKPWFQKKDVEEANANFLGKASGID
Protocol: The activation of soluble guanylate cyclase (sGC), which catalyzes the conversion of guanosine triphosphate (GTP) to cyclic guanosine monophosphate (cGMP) and pyrophosphate, by the compounds according to the invention was quantified with the aid of an enzyme immunoassay (EIA) from Amersham. For this, the test substances were first incubated with sGC in microtiter plates and then the quantity of the resulting cGMP was determined.
The sGC employed had been isolated from bovine lung (see Methods in Enzymology, Volume 195, p. 377). The test solutions (100 μl per well) contained 50 mM triethanolamine (TEA) buffer (pH 7.5), 3 mM MgCl2, 3 mM reduced glutathione (GSH), 0.1 mM GTP, 1 mM 3-isobutyl-1-methylxanthine (IBMX), suitably diluted enzyme solution and the test substance or, in the control experiments, solvent. The test substances were dissolved in dimethyl sulfoxide (DMSO) and the solution was diluted with DMSO/water such that the final concentration c of test substance in the test batch had the value indicated below. The DMSO concentration in the test batch was 5% (v/v). The reaction was started by addition of the sGC. The reaction mix was incubated at 37° C. for 15 to 20 minutes and then stopped by ice-cooling and addition of the stop reagent (50 mM EDTA, pH 8.0). An aliquot of 50 μl was taken and employed for the determination of the cGMP content using the acetylation protocol of the Amersham cGMP EIA kit. The absorption of the samples was measured at 450 nm (reference wavelength 620 nm) in a microtiter plate reading apparatus. The cGMP concentration was determined by means of a calibration curve, which was obtained under the same experimental conditions. The activation of the sGC by a test substance is indicated as n-fold stimulation of the basal enzyme activity which was found in the control experiments (with solvent instead of test substance) (calculated according to the formula n-fold stimulation=[cGMP]test substance/[cGMP]control).

`O=C(Nc1cccc(Cl)c1)c1cc(Cl)ccc1NS(=O)(=O)c1ccc(Cl)cc1` [Example 10, 5-Chloro-2-(4-chlorophenylsulfonylamino)-N-(3-chlorophenyl)benzamide] showed a melting point of 228 °C and a n-fold stimulation ([1]; concentration c 100 μM) of 1.7 n-fold.

For `CC(=O)c1ccc(NC(=O)c2cc(Cl)ccc2NS(=O)(=O)c2ccc(Cl)cc2)cc1` [Example 24, 5-Chloro-2-(4-chlorophenylsulfonylamino)-N-(4-acetylphenyl)benzamide], the melting point was 226 °C and the n-fold stimulation ([1]; concentration c 50 μM) was 2.4 n-fold.

Compound `CCOC(=O)c1cc(NC(=O)c2cc(Cl)ccc2NS(=O)(=O)c2ccc(Cl)c(Cl)c2)ccc1Cl` [Example 18, Ethyl 2-chloro-5-(5-chloro-2-(3,4-dichlorophenylsulfonylamino)benzoylamino)benzoate] has a melting point of 202 °C and a n-fold stimulation ([1]; concentration c 100 μM) of 3.2 n-fold.

For “5-Chloro-2-(4-chlorophenylsulfonylamino)-N-(quinolinsyl)benzamide [Example 111]”, the n-fold stimulation ([1]; concentration c 50 μM) was 6.1 n-fold.

Compound `CC(C)c1ccc(NC(=O)c2cc(Cl)ccc2NS(=O)(=O)c2ccc(Cl)cc2)cc1` [Example 16, 5-Chloro-2-(4-chlorophenylsulfonylamino)-N-(4-isopropylphenyl)benzamide] has a melting point of 188 °C and a n-fold stimulation ([1]; concentration c 100 μM) of 4.1 n-fold.

With `O=C(Nc1ccc(Oc2ccccc2)cc1)c1ccccc1NS(=O)(=O)c1ccc(Cl)cc1` [Example 7, 2-(4-Chlorophenylsulfonylamino)-N-(4-phenoxyphenyl)benzamide] the melting point was 143 °C and the n-fold stimulation ([1]; concentration c 100 μM) was 2.8 n-fold.

Work on `CCN(CC)Cc1cc(NC(=O)c2cc(Cl)ccc2NS(=O)(=O)c2ccc(Cl)cc2)ccc1O` [Example 93, 5-Chloro-2-(4-chlorophenylsulfonylamino)-N-(3-diethylaminomethyl-4-hydroxyphenyl)benzamide] yielded a n-fold stimulation ([1]; concentration c 50 μM) of 1.5 n-fold.

In the case of `O=C(Nc1ccc(Nc2ccccc2)cc1)c1cc(Cl)ccc1NS(=O)(=O)c1ccc(Cl)cc1` [Example 22, 5-Chloro-2-(4-chlorophenylsulfonylamino)-N-(4-(phenylamino)phenyl)benzamide], the melting point is reported as 192.5 °C.

`O=C(Nc1ccc(Oc2ccc(Cl)cc2)cc1)c1cc(Cl)ccc1NS(=O)(=O)c1ccc(Cl)cc1` [Example 6, 5-Chloro-2-(4-chlorophenylsulfonylamino)-N-(4-(4-chlorophenoxy)phenyl)benzamide] gave a melting point of 207 °C and a n-fold stimulation ([1]; concentration c 100 μM) of 4.2 n-fold.

With `COc1cccc(NC(=O)c2cc(Cl)ccc2NS(=O)(=O)c2ccc(Cl)cc2)c1` [Example 31, 5-Chloro-2-(4-chlorophenylsulfonylamino)-N-(3-methoxyphenyl)benzamide] the melting point was 163.5 °C.

With `O=C(Nc1cccc(C(F)(F)F)c1)c1ccccc1NS(=O)(=O)c1ccc(Cl)cc1` [Example 1, 2-(4-Chlorophenylsulfonylamino)-N-(3-trifluoromethylphenyl)benzamide] the melting point was 169 °C and the n-fold stimulation ([1]; concentration c 100 μM) was 3.6 n-fold.

`O=C(Nc1ccc2ccccc2c1)c1ccccc1NS(=O)(=O)c1ccc(Cl)cc1` [Example 3, 2-(4-Chlorophenylsulfonylamino)-N-(2-naphthyl)benzamide] showed a melting point of 189 °C and a n-fold stimulation ([1]; concentration c 100 μM) of 2 n-fold.

For `COc1ccc(S(=O)(=O)Nc2ccc(Cl)cc2C(=O)Nc2ccc(F)cc2)cc1Cl` [Example 17], the n-fold stimulation ([1]; concentration c 100 μM) was 2 n-fold.

In the case of `N#CC(c1ccccc1)c1ccc(NC(=O)c2cc(Cl)ccc2NS(=O)(=O)c2ccc(Cl)cc2)cc1` (stereo not shown) [Example 97, 5-Chloro-2-(4-chlorophenylsulfonylamino)-N-(4-(cyanophenylmethyl)phenyl)benzamide], the n-fold stimulation ([1]; concentration c 12.5 μM) is reported as 4.9 n-fold.

In the case of `O=C(Nc1ccc(Cl)c(Cl)c1)c1cc(Cl)ccc1NS(=O)(=O)c1ccc(Cl)cc1` [Example 8, 5-Chloro-2-(4-chlorophenylsulfonylamino)-N-(3,4-dichlorophenyl)benzamide], the n-fold stimulation ([1]; concentration c 10 μM) is reported as 5.3 n-fold.

Compound `O=C(Nc1ccc(C(=O)N2CCOCC2)cc1)c1cc(Cl)ccc1NS(=O)(=O)c1ccc(Cl)cc1` [Example 33, 5-Chloro-2-(4-chlorophenylsulfonylamino)-N-(4-(morpholine-4-carbonyl)phenyl)benzamide] has a n-fold stimulation ([1]; concentration c 50 μM) of 3.8 n-fold.

For `O=C(O)Cc1cccc(NC(=O)c2cc(Cl)ccc2NS(=O)(=O)c2ccc(Cl)cc2)c1` [Example 108, (3-(5-Chloro-2-(4-chlorophenylsulfonylamino)benzoylamino)phenyl)acetic acid], the n-fold stimulation ([1]; concentration c 50 μM) was 2.5 n-fold.

Compound `O=C(Nc1ccc(Oc2ccc(Cl)c3ccccc23)c(Cl)c1)c1cc(Cl)ccc1NS(=O)(=O)c1ccc(Cl)cc1` [Example 19, 5-Chloro-2-(4-chlorophenylsulfonylamino)-N-(3-chloro-4-(4-chloronaphthalene-1-yloxy)phenyl)benzamide] has a n-fold stimulation ([1]; concentration c 100 μM) of 26.3 n-fold.

`COc1cc(NC(=O)c2cc(Cl)ccc2NS(=O)(=O)c2ccc(Cl)cc2)cc(OC)c1` [Example 32, 5-Chloro-2-(4-chlorophenylsulfonylamino)-N-(3,5-dimethoxyphenyl)benzamide] showed a melting point of 74.5 °C.

`Cc1cncc(NC(=O)c2cc(Cl)ccc2NS(=O)(=O)c2ccc(Cl)cc2)n1` [Example 26, 5-Chloro-2-(4-chlorophenylsulfonylamino)-N-(5-methylpyrazin-3-yl)benzamide] showed a melting point of 248 °C.

In the case of `O=C(O)CNC(=O)c1ccc(NC(=O)c2cc(Cl)ccc2NS(=O)(=O)c2ccc(Cl)cc2)cc1` [Example 102, (4-(5-Chloro-2-(4-chlorophenylsulfonylamino)benzoylamino)benzoylamino)acetic acid], the n-fold stimulation ([1]; concentration c 50 μM) is reported as 1.7 n-fold.

`O=C(Nc1ccc(N2CCCC2=O)cc1)c1cc(Cl)ccc1NS(=O)(=O)c1ccccc1` [Example 25] showed a n-fold stimulation ([1]; concentration c 50 μM) of 2.4 n-fold.

With `O=C(Nc1ccccc1C(F)(F)F)c1cc(Cl)ccc1NS(=O)(=O)c1ccc(Cl)cc1` [Example 30, 5-Chloro-2-(4-chlorophenylsulfonylamino)-N-(2-trifluoromethylphenyl)benzamide] the melting point was 182 °C.

In the case of `O=C(Nc1cc(C(F)(F)F)cc(C(F)(F)F)c1)c1cc(Cl)ccc1NS(=O)(=O)c1ccc(Cl)cc1` [Example 28, 5-Chloro-2-(4-chlorophenylsulfonylamino)-N-(3,5-bis-trifluoromethylphenyl)benzamide], the melting point is reported as 182.5 °C.

In the case of `O=C(Nc1cc(-c2cccs2)n[nH]1)c1cc(Cl)ccc1NS(=O)(=O)c1ccc(Cl)cc1` [Example 27, 5-Chloro-2-(4-chlorophenylsulfonylamino)-N-(3-(2-thienyl)pyrazol-5-yl)benzamide], the melting point is reported as 117 °C.

`COc1ccc(C(F)(F)F)cc1NC(=O)c1cc(Cl)ccc1NS(=O)(=O)c1ccc(Cl)cc1` [Example 29, 5-Chloro-2-(4-chlorophenylsulfonylamino)-N-(2-methoxy-5-trifluoromethylphenyl)benzamide] showed a melting point of 164.5 °C.

From US7351703B2, “Sulfonylamino carboxylic acid N-arylamides as guanylate cyclase activators” (Sanofi-Aventis Deutschland GmbH, priority 1999, dated 2008)
